Each structure is given as a SMILES string.

Broadly, the IC50 is the concentration that gives 50% inhibition.

T1 sequence (Q9UM07 2-663): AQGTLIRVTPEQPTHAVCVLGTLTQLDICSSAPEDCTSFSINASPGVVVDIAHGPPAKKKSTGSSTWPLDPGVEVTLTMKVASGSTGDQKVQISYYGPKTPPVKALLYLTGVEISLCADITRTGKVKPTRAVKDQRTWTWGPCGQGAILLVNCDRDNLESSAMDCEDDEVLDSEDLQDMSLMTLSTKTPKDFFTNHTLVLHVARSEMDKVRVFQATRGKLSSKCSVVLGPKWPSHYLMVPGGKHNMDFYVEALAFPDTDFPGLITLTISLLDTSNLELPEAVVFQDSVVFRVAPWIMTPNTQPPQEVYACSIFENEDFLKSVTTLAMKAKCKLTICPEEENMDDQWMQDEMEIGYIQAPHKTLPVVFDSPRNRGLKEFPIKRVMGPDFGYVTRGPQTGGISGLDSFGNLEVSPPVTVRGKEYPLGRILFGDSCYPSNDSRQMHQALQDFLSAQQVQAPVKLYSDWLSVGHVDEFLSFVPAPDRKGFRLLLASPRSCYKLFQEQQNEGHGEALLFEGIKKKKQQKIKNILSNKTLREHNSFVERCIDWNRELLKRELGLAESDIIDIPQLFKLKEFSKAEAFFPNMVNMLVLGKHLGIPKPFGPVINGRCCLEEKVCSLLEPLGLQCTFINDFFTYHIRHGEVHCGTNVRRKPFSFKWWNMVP

This assay has as its target T1, human PAD4 (Homo sapiens, UniProt Q9UM07).
T1 construct: human PAD4 (NM_012387), A2-P663, was PCR amplified; His-SUMO (N, cleaved yes); made in house; host or cells: E. coli BL21(DE3)
In words: In vitro PAD4 BAEE biochemical assay. The following applies: BAEE substrate 3 mM, 5 nM PAD4, 2 mM calcium chloride; geometric mean of multiple experiments. In a few lines:
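PAD4 5 nM, CaCl2 2 mM, BAEE 3 mM final; 50 mM MOPS pH 7.6, 50 mM NaCl, 0.05% Tween-20, 2 mM DTT. Cpd + enzyme 30 min 25 °C; substrate 2 h 25 °C; EDTA stop; OPA detection 1 h. IC50 4-parameter fit.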
Turning to `COc1cc(C(=O)N2CCC[C@@H](N)C2)cc2nc(-c3cc4ccc5nc4n3CCCCCCNC(=O)c3ccccc3-5)n(C)c12` [Example 49, 17-[5-[(3~{R})-3-aminopiperidine-1-carbonyl]-7-methoxy-1-methyl-benzimidazol-2-yl]-9,16,22-triazatetracyclo[14.5.2.0^{2,7}.0^{19,23}] tricosa-1(22),2,4,6,17,19(23),20-heptaen-8-one], the concentration for half-maximal inhibition (IC50) amounted to 112 nM.
In the case of `COc1cc(C(=O)N2CCC[C@@H](N)C2)cc2nc(-c3cc4ccc5nc4n3CCCCCCNc3ncccc3-5)n(C)c12` [Example 50, [(3~{R})-3-amino-1-piperidyl]-[7-methoxy-1-methyl-2-(6,8,15,21-tetrazatetracyclo[13.5.2.0^{2,7}.0^{18,22}]docosa-1(21),2,4,6,16,18(22),19-heptaen-16-yl)benzimidazol-5-yl]methanone], the half-inhibitory concentration (IC50) was determined as 10000 nM.
The value for `COc1cc(C(=O)N2CCC[C@@H](N)C2)cc2nc(-c3cc4ccc5cc4n3CCCCCCNC(=O)c3ccccc3-5)n(C)c12` [Example 51, 17-[5-[(3~{R})-3-aminopiperidine-1-carbonyl]-7-methoxy-1-methyl-benzimidazol-2-yl]-9,16-diazatetracyclo[14.5.2.0^{2,7}.0^{19,23}] tricosa-1(22),2,4,6,17,19(23),20-heptaen-8-one] was 215 nM; that for `COc1cc(C(=O)N2CCC[C@@H](N)C2)cc2nc(-c3cc4ccc5cc4n3CCCCCCNC(=O)c3ncccc3-5)n(C)c12` [Example 52, 17-[5-[(3~{R})-3-aminopiperidine-1-carbonyl]-7-methoxy-1-methyl-benzimidazol-2-yl]-6,9,16-triazatetracyclo[14.5.2.0^{2,7}.0^{19,23}] tricosa-1(22),2,4,6,17,19(23),20-heptaen-8-one] was 424 nM.
For the compound `COc1cc(C(=O)N2CCC[C@@H](N)C2)cc2nc(-c3cc4ccc5cc4n3CCCCCCC(C)(C)C(=O)Nc3ncccc3-5)n(C)c12` [Example 53, 18-[5-[(3~{R})-3-aminopiperidine-1-carbonyl]-7-methoxy-1-methyl-benzimidazol-2-yl]-10,10-dimethyl-6,8,17-triazatetracyclo[15.5.2.0^{2,7}.0^{20,24}] tetracosa-1(23),2,4,6,18,20(24),21-heptaen-9-one], the half-maximal inhibitory concentration (IC50) amounted to 283 nM.
For `COc1cc(C(=O)N2CCC[C@@H](N)C2)cc2nc(-c3cc4ccc5cc4n3CCCCCCC(C)(C)C(=O)Nc3ccccc3-5)n(C)c12` [Example 54, 18-[5-[(3~{R})-3-aminopiperidine-1-carbonyl]-7-methoxy-1-methyl-benzimidazol-2-yl]-10,10-dimethyl-8,17-diazatetracyclo[15.5.2.0^{2,7).0^{20,24}] tetracosa-1(23),2,4,6,18,20(24),21-heptaen-9-one], the IC50 was determined as 1380 nM.
With `COc1cc(C(=O)N2CCC[C@@H](N)C2)cc2nc(-c3cc4ccc5cc4n3CCCC3CCN(CC3)C(=O)c3ccccc3-5)n(C)c12` [Example 55, 17-[5-[(3~{R})-3-aminopiperidine-1-carbonyl]-7-methoxy-1-methyl-benzimidazol-2-yl]-9,16-diazapentacyclo[14.5.2.2^{9,12).0^{2,7}.0^ {19,23}]pentacosa-1(22),2,4,6,17,19(23),20-heptaen-8-one] the figure was 4680 nM; with `COc1cc(C(=O)N2CCC[C@@H](N)C2)cc2nc(-c3cc4ccc5nc4n3CCCCCCNC(=O)c3c-5ccnc3F)n(C)c12` [Example 56, 17-[5-[(3~{R})-3-aminopiperidine-1-carbonyl]-7-methoxy-1-methyl-benzimidazol-2-yl]-6-fluoro-5,9,16,22-tetrazatetracyclo[14.5.2.0^{2,7}.0^{19,23}] tricosa-1(22),2,4,6,17,19(23),20-heptaen-8-one], 193 nM.
On to `COc1cc(C(=O)N2CCC[C@@H](N)C2)cc2nc(-c3cc4ccc5nc4n3CCCCCCNC(=O)c3cccc(C)c3-5)n(C)c12` [Example 57, 17-[5-[(3~{R})-3-aminopiperidine-1-carbonyl]-7-methoxy-1-methyl-benzimidazol-2-yl]-3-methyl-9,16,22-triazatetracyclo[14.5.2.0^{2,7}.0^{19,23}] tricosa-1(22),2,4,6,17,19(23),20-heptaen-8-one], for which the IC50 was found to be 213 nM.
As for `COc1cc(C(=O)N2CCC[C@@H](N)C2)cc2nc(-c3cc4ccc5nc4n3CCCCCC(C)(C)C(=O)N[C@@H]5C)n(C)c12` [Example 58, (10~{R})-16-[5-[(3~{R})-3-aminopiperidine-1-carbonyl]-7-methoxy-1-methyl-benzimidazol-2-yl]-7,7,10-trimethyl-1,9,18-triazatricyclo[9.5.2.0^{14,17}]octadeca-11(18),12,14(17),15-tetraen-8-one], the IC50 was determined as 77 nM.
The value for `COc1cc(C(=O)N[C@H]2CNC[C@@H](O)C2)cc2nc(-c3cc4ccc5nc4n3CCCCCCC(C)(C)C(=O)N[C@@H]5C)n(C)c12` [Example 59, ~{N}-[(3~{R},5~{S})-5-hydroxy-3-piperidyl]-7-methoxy-1-methyl-2-[(11~{R})-8,8,11-trimethyl-9-oxo-1,10,19-triazatricyclo[10.5.2.0^{15,18}]nonadeca-12(19),13,15(18),16-tetraen-17-yl]benzimidazole-5-carboxamide] was 161 nM.
The value for `COc1cc(C(=O)N2CC[C@@H](OC)[C@@H](N)C2)cc2nc(-c3cc4ccc5nc4n3CCCCCCC(C)(C)C(=O)N[C@@H]5C)n(C)c12` [Example 60, (11~{R})-17-[5-[(3~{S},4~{R})-3-amino-4-methoxy-piperidine-1-carbonyl]-7-methoxy-1-methyl-benzimidazol-2-yl]-8,8,11-trimethyl-1,10,19-triazatricyclo[10.5.2.0^{15,18}]nonadeca-12(19),13,15(18),16-tetraen-9-one] was 118 nM.
With `COc1cc(C(=O)N2CC[C@@H](OC)[C@@H](N)C2)cc2nc(-c3cc4ccc5nc4n3CCCCCC(C)(C)C(=O)N[C@@H]5C)n(C)c12` [Example 61, (10~{R})-16-[5-[(3~{S},4~{R})-3-amino-4-methoxy-piperidine-1-carbonyl]-7-methoxy-1-methyl-benzimidazol-2-yl]-7,7,10-trimethyl-1,9,18-triazatricyclo[9.5.2.0^{14,17}]octadeca-11(18),12,14(17),15-tetraen-8-one] the figure was 231 nM; with `COc1cc(C(=O)N2CC[C@@H](OC)[C@@H](N)C2)cc2nc(-c3cc4ccc5nc4n3CCCCCCC3(CC3)C(=O)N[C@@H]5C)n(C)c12` [Example 62, (11~{R})-17-[5-[(3~{S},4~{R})-3-amino-4-methoxy-piperidine-1-carbonyl]-7-methoxy-1-methyl-benzimidazol-2-yl]-11-methyl-spiro[1,10,19-triazatricyclo[10.5.2.0^{15,18}]nonadeca-12(19),13,15(18),16-tetraene-8,1′-cyclopropane]-9-one], 150 nM.
On to `COc1cc(C(=O)N[C@H]2CNCC(F)(F)C2)cc2nc(-c3cc4ccc5nc4n3CCCCCCC(C)(C)C(=O)N[C@@H]5C)n(C)c12` [Example 63, ~{N}-[(3~{R})-5,5-difluoro-3-piperidyl]-7-methoxy-1-methyl-2-[(11~{R})-8,8,11-trimethyl-9-oxo-1,10,19-triazatricyclo[10.5.2.0^{15,18}]nonadeca-12(19),13,15(18),16-tetraen-17-yl]benzimidazole-5-carboxamide], for which the IC50 turned out to be 25000 nM.
`COc1cc(C(=O)N[C@H]2CNC[C@H](F)C2)cc2nc(-c3cc4ccc5nc4n3CCCCCCC(C)(C)C(=O)N[C@@H]5C)n(C)c12` [Example 64, ~{N}-[(3~{R},5~{R})-5-fluoro-3-piperidyl]-7-methoxy-1-methyl-2-[(11~{R})-8,8,11-trimethyl-9-oxo-1,10,19-triazatricyclo[10.5.2.0^{15,18}]nonadeca-12(19),13,15(18),16-tetraen-17-yl]benzimidazole-5-carboxamide]: the IC50 is 315 nM.
In the case of `COc1cc(C(=O)N2CC[C@@H](CO)[C@H](N)C2)cc2nc(-c3cc4ccc5nc4n3CCCCCCC(C)(C)C(=O)N[C@@H]5C)n(C)c12` [Example 66, (11˜{R})-17-[5-[(3˜{S},4˜{R})-3-amino-4-(hydroxymethyl)piperidine-1-carbonyl]-7-methoxy-1-methyl-benzimidazol-2-yl]-8,8,11-trimethyl-1,10,19-triazatricyclo[10.5.2.0^{15,18}]nonadeca-12(19),13,15(18),16-tetraen-9-one], the half-inhibitory concentration (IC50) came to 1160 nM.
The value for `COc1cc(C(=O)N[C@H]2CNC[C@H](C)C2)cc2nc(-c3cc4ccc5nc4n3CCCCCCC(C)(C)C(=O)N[C@@H]5C)n(C)c12` [Example 67, 7-methoxy-1-methyl-~{N}-[(3~{R},5~{R})-5-methyl-3-piperidyl]-2-[(11~{R})-8,8,11-trimethyl-9-oxo-1,10,19-triazatricyclo[10.5.2.0^{15,18}]nonadeca-12(19),13,15(18),16-tetraen-17-yl]benzimidazole-5-carboxamide] was 1300 nM.
On to `COc1cc(C(=O)N[C@H]2CNC[C@@H](C)C2)cc2nc(-c3cc4ccc5nc4n3CCCCCCC(C)(C)C(=O)N[C@@H]5C)n(C)c12` [Example 68, 7-methoxy-1-methyl-~{N}-[(3~{R},5~{S})-5-methyl-3-piperidyl]-2-[(11~{R})-8,8,11-trimethyl-9-oxo-1,10,19-triazatricyclo[10.5.2.0^{15,18}]nonadeca-12(19),13,15(18),16-tetraen-17-yl]benzimidazole-5-carboxamide], for which the IC50 turned out to be 287 nM.
In the case of `COc1cc(C(=O)N[C@H]2CNCC[C@H]2F)cc2nc(-c3cc4ccc5nc4n3CCCCCCC(C)(C)C(=O)N[C@@H]5C)n(C)c12` [Example 69, ~{N}-[(3~{S},4~{R})-4-fluoro-3-piperidyl]-7-methoxy-1-methyl-2-[(11~{R})-8,8,11-trimethyl-9-oxo-1,10,19-triazatricyclo[10.5.2.0^{15,18}]nonadeca-12(19),13,15(18),16-tetraen-17-yl]benzimidazole-5-carboxamide], the IC50 is 201 nM.

(Values after patent US11976083B2, “Inhibitors of peptidylarginine deiminases” (Gilead Sciences, Inc., priority 2020, dated 2024).)
